Experiments:
Format in all cases: in vivo
[1] = test system: lambsquarters (Chenopodium album); experiment: Test B pre-/postemergence plant response
Outline: (§1)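 Response scores were assigned visually after 13 to 15 days in a greenhouse, comparing treated pots with controls on a 0–100 scale where 100 denotes complete control. Preemergence treatments went onto freshly seeded loam/sand soil; postemergence treatments onto plants 2 to 18 cm tall.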

[2] = test system: wheat (Triticum aestivum); experiment: Test B pre-/postemergence plant response
Outline: as §1

[3] = test system: blackgrass (Alopecurus myosuroides); experiment: Test B pre-/postemergence plant response
Outline: as §1

[4] = test system: velvetleaf (Abutilon theophrasti); experiment: Test B pre-/postemergence plant response
Outline: as §1

soybean (Glycine max) = experiment: Test B pre-/postemergence plant response
Outline: as §1

[5] = test system: pigweed (Amaranthus retroflexus); experiment: Test B pre-/postemergence plant response
Outline: as §1

[6] = test system: cocklebur (Xanthium strumarium); experiment: Test B pre-/postemergence plant response
Outline: as §1

wild oat (Avena fatua) = experiment: Test B pre-/postemergence plant response
Outline: as §1

[7] = test system: Surinam grass (Brachiaria decumbens); experiment: Test B pre-/postemergence plant response
Outline: as §1

kochia (Kochia scoparia) = experiment: Test B pre-/postemergence plant response; details: Postemergence; for Kochia plant response rating: 250 g ai/ha, scale 0 to 100
Outline: as §1

[8] = test system: windgrass (Apera spica-venti); experiment: Test B postemergence plant response; details: Postemergence
Outline: (§2)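 Plants at the 1- to 4-leaf stage (2 to 18 cm tall), grown in pots of peat moss/vermiculite medium with wetting agent and starter nutrients, received postemergence applications of test chemicals. After 13 to 15 days in a greenhouse, injury was rated visually against untreated controls on a 0 (no effect) to 100 (complete control) scale.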

[9] = test system: canarygrass (Phalaris minor); experiment: Test B postemergence plant response; details: Postemergence; for Canarygrass plant response rating: 250 g ai/ha, scale 0 to 100
Outline: as §2

[10] = test system: chickweed (Stellaria media); experiment: Test B postemergence plant response; details: Postemergence; for Chickweed plant response rating: 250 g ai/ha, scale 0 to 100
Outline: as §2

[11] = 250 g ai/ha, Preemergence, 0 to 100 scale
[12] = Postemergence, 62 g ai/ha, scale 0 (no effect) to 100 (complete control), 13 to 15 days
[13] = Postemergence, 125 g ai/ha, visual rating after 13 to 15 days, scale 0 (no effect) to 100 (complete control)
[14] = Postemergence, 250 g ai/ha, scale 0 to 100
[15] = Preemergence, 31 g ai/ha, scale 0 to 100 (0 no effect, 100 complete control)
[16] = Preemergence, 62 g ai/ha, scale 0 to 100 (0 no effect, 100 complete control)
[17] = Preemergence, 125 g ai/ha, 0 to 100 scale
[18] = Postemergence, 31 g ai/ha, scale 0 to 100 (0 no effect, 100 complete control)
[19] = 62 g ai/ha, scale 0 (no effect) to 100 (complete control), 13 to 15 days
[20] = 125 g ai/ha, visual rating after 13 to 15 days, scale 0 (no effect) to 100 (complete control)
[21] = 31 g ai/ha, scale 0 to 100 (0 no effect, 100 complete control)

Question: Which “Plant response rating, Lambsquarters” value [1, 11] does the source give for `Cc1ccccc1-n1c(-c2cccc(Cl)c2)ncc(C(=O)C2=C(O)CCCC2=O)c1=O` [Compound 36] here?
Answer: 100

Question: What about the “Plant response rating, Lambsquarters” value [1, 12] of the same compound?
Answer: 100

Question: What about the “Plant response rating, Lambsquarters” value [1, 13] of the same compound?
Answer: 100

Question: And the “Lambsquarters plant response rating” value [1, 14]?
Answer: 100

Question: And the “Plant response rating, Lambsquarters” value [1, 15]?
Answer: 98

Question: What about the “Plant response rating, Lambsquarters” value [1, 16] of the same compound?
Answer: 100

Question: What about the “Lambsquarters plant response rating” value [1, 17] of the same compound?
Answer: 100

Question: And the “Plant response rating, Wheat” value [2, 11]?
Answer: 0

Question: And the “Plant response rating, Wheat” value [2, 12]?
Answer: 5

Question: And the “Plant response rating, Wheat” value [2, 13]?
Answer: 5

Question: And the “Plant response rating, Wheat” value [2, 15]?
Answer: 0

Question: What about the “Wheat plant response rating” value [2, 17] of the same compound?
Answer: 0

Question: What about the “Plant response rating, Blackgrass” value [3, 11] of the same compound?
Answer: 25

Question: And the “Plant response rating, Blackgrass” value [3, 18]?
Answer: 5

Question: What about the “Plant response rating, Blackgrass” value [3, 12] of the same compound?
Answer: 5

Question: And the “Plant response rating, Blackgrass” value [3, 13]?
Answer: 15

Question: And the “Blackgrass plant response rating” value [3, 14]?
Answer: 15

Question: What about the “Plant response rating, Blackgrass” value [3, 15] of the same compound?
Answer: 20

Question: What about the “Plant response rating, Blackgrass” value [3, 16] of the same compound?
Answer: 25

Question: What about the “Blackgrass plant response rating” value [3, 17] of the same compound?
Answer: 25

Question: What about the “Plant response rating, Velvetleaf” value [4, 11] of the same compound?
Answer: 100

Question: And the “Plant response rating, Velvetleaf” value [4, 12]?
Answer: 100

Question: What about the “Plant response rating, Velvetleaf” value [4, 13] of the same compound?
Answer: 100

Question: What about the “Plant response rating, Velvetleaf” value [4, 15] of the same compound?
Answer: 65

Question: What about the “Velvetleaf plant response rating” value [4, 17] of the same compound?
Answer: 100

Question: And the “Plant response rating, Soybean” value (soybean (Glycine max); [11])?
Answer: 40

Question: And the “Plant response rating, Soybean” value (soybean (Glycine max); [12])?
Answer: 98

Question: And the “Plant response rating, Soybean” value (soybean (Glycine max); [13])?
Answer: 100

Question: And the “Plant response rating, Soybean” value (soybean (Glycine max); [15])?
Answer: 0

Question: And the “Soybean plant response rating” value (soybean (Glycine max); [17])?
Answer: 0

Question: And the “Plant response rating, Pigweed” value [5, 11]?
Answer: 100

Question: What about the “Plant response rating, Pigweed” value [5, 12] of the same compound?
Answer: 85

Question: What about the “Plant response rating, Pigweed” value [5, 13] of the same compound?
Answer: 90

Question: What about the “Plant response rating, Pigweed” value [5, 15] of the same compound?
Answer: 100

Question: What about the “Pigweed plant response rating” value [5, 17] of the same compound?
Answer: 100

Question: What about the “Plant response rating, Cocklebur” value [6, 11] of the same compound?
Answer: 80

Question: What about the “Plant response rating, Oat, Wild” value (wild oat (Avena fatua); [11]) of the same compound?
Answer: 0

Question: And the “Plant response rating, Oat, Wild” value (wild oat (Avena fatua); [12])?
Answer: 75

Question: And the “Plant response rating, Oat, Wild” value (wild oat (Avena fatua); [13])?
Answer: 75

Question: What about the “Plant response rating, Oat, Wild” value (wild oat (Avena fatua); [15]) of the same compound?
Answer: 0

Question: And the “Oat, Wild plant response rating” value (wild oat (Avena fatua); [17])?
Answer: 0

Question: What about the “Plant response rating, Surinam Grass” value [7, 11] of the same compound?
Answer: 100

Question: What about the “Plant response rating, Surinam Grass” value [7, 12] of the same compound?
Answer: 85

Question: And the “Plant response rating, Surinam Grass” value [7, 13]?
Answer: 85

Question: And the “Plant response rating, Surinam Grass” value [7, 15]?
Answer: 70

Question: What about the “Surinam Grass plant response rating” value [7, 17] of the same compound?
Answer: 100

Question: And the “Plant response rating, Kochia” value (kochia (Kochia scoparia); [19])?
Answer: 0

Question: What about the “Plant response rating, Kochia” value (kochia (Kochia scoparia); [20]) of the same compound?
Answer: 60

Question: What about the “Kochia plant response rating” value (kochia (Kochia scoparia)) of the same compound?
Answer: 65

Question: What about the “Plant response rating, Windgrass” value [8, 19] of the same compound?
Answer: 70

Question: And the “Plant response rating, Windgrass” value [8, 20]?
Answer: 80

Question: And the “Plant response rating, Canarygrass” value [9, 21]?
Answer: 40

Question: What about the “Plant response rating, Canarygrass” value [9, 19] of the same compound?
Answer: 45

Question: And the “Plant response rating, Canarygrass” value [9, 20]?
Answer: 50

Question: What about the “Canarygrass plant response rating” value [9] of the same compound?
Answer: 50

Question: What about the “Plant response rating, Chickweed” value [10, 21] of the same compound?
Answer: 85

Question: What about the “Plant response rating, Chickweed” value [10, 19] of the same compound?
Answer: 98

Question: What about the “Plant response rating, Chickweed” value [10, 20] of the same compound?
Answer: 100

Question: And the “Chickweed plant response rating” value [10]?
Answer: 100

Question: How did the “Plant response rating, Lambsquarters” value [1, 18] turn out when `Cc1ccc(-n2c(-c3ccccc3)ncc(C(=O)C3=C(O)CCCC3=O)c2=O)cc1` [Compound 8] was run?
Answer: 95

Question: What about the “Plant response rating, Lambsquarters” value [1, 12] of the same compound?
Answer: 100

Question: What about the “Plant response rating, Lambsquarters” value [1, 13] of the same compound?
Answer: 100

Question: And the “Lambsquarters plant response rating” value [1, 14]?
Answer: 100

Question: And the “Plant response rating, Wheat” value [2, 18]?
Answer: 25

Question: What about the “Plant response rating, Wheat” value [2, 12] of the same compound?
Answer: 30

Question: And the “Plant response rating, Wheat” value [2, 13]?
Answer: 35

Question: What about the “Wheat plant response rating” value [2, 14] of the same compound?
Answer: 35

Question: What about the “Plant response rating, Blackgrass” value [3, 18] of the same compound?
Answer: 5

Question: And the “Plant response rating, Blackgrass” value [3, 12]?
Answer: 10

Question: And the “Plant response rating, Blackgrass” value [3, 13]?
Answer: 10

Question: And the “Blackgrass plant response rating” value [3, 14]?
Answer: 20

Question: And the “Plant response rating, Velvetleaf” value [4, 18]?
Answer: 75

Question: And the “Plant response rating, Velvetleaf” value [4, 12]?
Answer: 80

Question: And the “Plant response rating, Velvetleaf” value [4, 13]?
Answer: 95

Question: What about the “Velvetleaf plant response rating” value [4, 14] of the same compound?
Answer: 100

Question: What about the “Plant response rating, Soybean” value (soybean (Glycine max); [18]) of the same compound?
Answer: 98

Question: And the “Plant response rating, Soybean” value (soybean (Glycine max); [12])?
Answer: 98

Question: And the “Plant response rating, Soybean” value (soybean (Glycine max); [13])?
Answer: 98

Question: And the “Soybean plant response rating” value (soybean (Glycine max); [14])?
Answer: 100

Question: What about the “Plant response rating, Pigweed” value [5, 18] of the same compound?
Answer: 98

Question: What about the “Plant response rating, Pigweed” value [5, 12] of the same compound?
Answer: 100

Question: What about the “Plant response rating, Pigweed” value [5, 13] of the same compound?
Answer: 100

Question: What about the “Pigweed plant response rating” value [5, 14] of the same compound?
Answer: 100

Question: What about the “Plant response rating, Cocklebur” value [6, 18] of the same compound?
Answer: 100

Question: What about the “Plant response rating, Cocklebur” value [6, 12] of the same compound?
Answer: 100

Question: What about the “Plant response rating, Cocklebur” value [6, 13] of the same compound?
Answer: 100

Question: What about the “Cocklebur plant response rating” value [6, 14] of the same compound?
Answer: 100

Question: And the “Plant response rating, Oat, Wild” value (wild oat (Avena fatua); [18])?
Answer: 10

Question: And the “Plant response rating, Oat, Wild” value (wild oat (Avena fatua); [12])?
Answer: 15

Question: What about the “Plant response rating, Oat, Wild” value (wild oat (Avena fatua); [13]) of the same compound?
Answer: 35

Question: What about the “Oat, Wild plant response rating” value (wild oat (Avena fatua); [14]) of the same compound?
Answer: 35

Question: What about the “Plant response rating, Surinam Grass” value [7, 18] of the same compound?
Answer: 60

Question: And the “Plant response rating, Surinam Grass” value [7, 12]?
Answer: 65

Question: And the “Plant response rating, Surinam Grass” value [7, 13]?
Answer: 75

Question: What about the “Surinam Grass plant response rating” value [7, 14] of the same compound?
Answer: 80

Question: And the “Plant response rating, Kochia” value (kochia (Kochia scoparia); [21])?
Answer: 85

Question: And the “Plant response rating, Kochia” value (kochia (Kochia scoparia); [19])?
Answer: 100

Question: And the “Plant response rating, Kochia” value (kochia (Kochia scoparia); [20])?
Answer: 100

Question: What about the “Kochia plant response rating” value (kochia (Kochia scoparia)) of the same compound?
Answer: 100

Question: What about the “Plant response rating, Windgrass” value [8, 21] of the same compound?
Answer: 5

Question: What about the “Plant response rating, Windgrass” value [8, 19] of the same compound?
Answer: 20

Question: And the “Plant response rating, Windgrass” value [8, 20]?
Answer: 30

Question: What about the “Windgrass plant response rating” value ([8]; 250 g ai/ha, scale 0 to 100) of the same compound?
Answer: 40

Question: And the “Plant response rating, Canarygrass” value [9, 21]?
Answer: 20

Question: And the “Plant response rating, Canarygrass” value [9, 19]?
Answer: 50

Question: And the “Plant response rating, Canarygrass” value [9, 20]?
Answer: 70

Question: And the “Canarygrass plant response rating” value [9]?
Answer: 85

Question: And the “Plant response rating, Chickweed” value [10, 21]?
Answer: 98

Question: And the “Plant response rating, Chickweed” value [10, 19]?
Answer: 100

Question: What about the “Plant response rating, Chickweed” value [10, 20] of the same compound?
Answer: 100

Question: And the “Chickweed plant response rating” value [10]?
Answer: 100
